For one experiment, the target named is T1, LmxCLK1 (Leishmania mexicana, UniProt E9AMP2).
T1 sequence (E9AMP2 1-422): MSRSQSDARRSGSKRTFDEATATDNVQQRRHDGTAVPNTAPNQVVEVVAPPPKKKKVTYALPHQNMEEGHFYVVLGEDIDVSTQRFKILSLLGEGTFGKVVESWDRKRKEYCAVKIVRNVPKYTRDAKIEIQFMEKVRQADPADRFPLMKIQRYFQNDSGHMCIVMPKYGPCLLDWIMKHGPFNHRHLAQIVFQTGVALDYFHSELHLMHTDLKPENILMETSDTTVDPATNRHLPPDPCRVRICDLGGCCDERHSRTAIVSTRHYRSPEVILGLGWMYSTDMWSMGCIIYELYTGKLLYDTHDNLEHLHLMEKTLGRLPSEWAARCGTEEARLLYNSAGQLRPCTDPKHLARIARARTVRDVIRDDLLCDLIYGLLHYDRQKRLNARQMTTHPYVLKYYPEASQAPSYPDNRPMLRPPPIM
The experiment in a line: biochemical. In kind it is binding.

The next experiment concerns the target NLuc::LmxCLK1 (Leishmania mexicana, UniProt E9AMP2). The experiment in a line: cell-based. It counts as cell-based. Conditions: for Target occupancy Run 1 / Target occupancy Run 2 / Target occupancy Average: 10 µM compound, tracer SV366, promastigotes; for Target occupancy Average: mean of two experiments. On the procedure:
All compounds were tested at a fixed concentration of 10 µM to enable direct comparison of their target occupancy in live cells.
Serially diluted probes (5 µL) were added to 85 µL of cells in culture media or 85 µL of purified protein. Final well volumes were adjusted to 100 µL with sterile Opti-MEM™ I Reduced Serum Medium (Thermo-Scientific) – for wells containing cells; or Kinase Buffer - for wells containing purified protein. For tracer displacement assays, samples were prepared as above, but final volume was brought to 100 µL by addition of vehicle or serially-diluted test compounds. Final DMSO concentration in these assays was 1%. […] Light emissions at 460+10 nm (BRET donor) and at 610+20 nm (BRET acceptor) were sequentially recorded (integration time = 0.5 s, gain = 3600) using a luminometer (BMG LABTECH Clariostar or Biotek Synergy HT). BRET values are reported in milli-BRET (mBRET) units (mBU), obtained by dividing the acceptor luminescence by the donor luminescence and multiplying the result by a factor of 1,000. BRET values were converted to blank-corrected probe occupancies (%) according to equation [1]: (1) Probeoccupancy(%)=X−Z/Y−Z×100 where X = mBRET value in the presence of the test compound and the probe, Y = mBRET value in the presence of probe only, and Z = mBRET value in the absence of probe and test compound. […]

[1] abbreviates: DSF, 10 µM compound, 2 µM LmxCLK1, Run 1.
Setting [2] is: DSF, 10 µM compound, 2 µM LmxCLK1, Run 2.
Where [3] appears, read: DSF, 10 µM compound, 2 µM LmxCLK1, mean of two runs.
Setting [4] is: DSF, 10 µM compound, 2 µM LmxCLK1, Run 1, read-out: ΔTm Run 1.
Setting [5] is: DSF, 10 µM compound, 2 µM LmxCLK1, Run 2, read-out: ΔTm Run 2.
The mark [6] stands for this setting: DSF, 10 µM compound, 2 µM LmxCLK1, mean of two runs, read-out: ΔTm Average.
[7] abbreviates: read-out: Target occupancy Average.
[8] abbreviates: read-out: Target occupancy Run 1.
[9] abbreviates: read-out: Target occupancy Run 2.

Read-outs that look alike come from different tables or passages of the source.

As for `COC(=O)c1ccc2c(c1)NC(=O)/C2=C(\Nc1ccc(N(C)C(=O)CN2CCN(C)CC2)cc1)c1ccccc1` [Nintedanib (BIBF 1120)], the “ΔTm Run 1” value on LmxCLK1 (setting [1]) is 0.3 °C. The “ΔTm Run 2” value at LmxCLK1 (setting [2]) was 0.2 °C. In addition, the “ΔTm Average” value at LmxCLK1 (setting [3]) was determined as 0.2 °C. Further, at NLuc::LmxCLK1, the “Target occupancy Run 1” value is listed as -1.8%, the “Target occupancy Run 2” value is given as -11.3% and the “Target occupancy Average” value is listed as -6.6%.
The ΔTm is the change in melting temperature against a reference sample. Consider `COc1cccc2cc(-c3nc([C@H]4CC[C@H](C(=O)O)CC4)n4ncnc(N)c34)[nH]c12` [OSI-027], for which the figures for the ΔTm at 10 µM on LmxCLK1 (setting [4]), on LmxCLK1 (setting [5]) and at LmxCLK1 (setting [6]) were 0.1 °C, -0.4 °C and -0.2 °C, respectively. Besides, the receptor occupancy at 10 µM on NLuc::LmxCLK1 (setting [7]) was -8.9%; on NLuc::LmxCLK1 (setting [8]), 5.5%; at NLuc::LmxCLK1 (setting [9]), -23.2%.
`C#Cc1cccc(Nc2ncnc3cc(OCCOC)c(OCCO)cc23)c1` [OSI-420]: the “ΔTm Run 1” value on LmxCLK1 (setting [1]) turned out to be 0.2 °C. At LmxCLK1 (setting [2]), the “ΔTm Run 2” value came to 0.1 °C. Moreover, the “ΔTm Average” value at LmxCLK1 (setting [3]) was determined as 0.1 °C. At NLuc::LmxCLK1, the “Target occupancy Run 1” value is listed as -6.8%, the “Target occupancy Run 2” value is given as 3.7% and the “Target occupancy Average” value is -1.5%.
Take `O=C(Nc1ccc(OC(F)(F)F)cc1)c1sccc1NCc1ccnc2ccccc12` [OSI-930]: the ΔTm at 10 µM at LmxCLK1 (setting [4]) stood at 0.4 °C; on LmxCLK1 (setting [5]), 0 °C; at LmxCLK1 (setting [6]), 0.2 °C. Further, the values for the receptor occupancy at 10 µM at NLuc::LmxCLK1 (setting [7]), at NLuc::LmxCLK1 (setting [8]) and on NLuc::LmxCLK1 (setting [9]) were 0.1%, -0.4% and 0.6%, respectively.
Regarding `COc1cccc(-c2cc(=O)c3ccccc3o2)c1N` [PD98059], the “ΔTm Run 1” value at LmxCLK1 (setting [1]) stood at 0.0 °C. Moreover, at LmxCLK1 (setting [2]), the “ΔTm Run 2” value is -0.2 °C. For the same molecule, the “ΔTm Average” value on LmxCLK1 (setting [3]) is -0.1 °C. For the same molecule, on NLuc::LmxCLK1, the “Target occupancy Run 1” value is -16.6%, the “Target occupancy Run 2” value is listed as -0.7% and the “Target occupancy Average” value is listed as -8.6%.
As to `O=C(NOCC1CC1)c1ccc(F)c(F)c1Nc1ccc(I)cc1Cl` [PD184352 (CI-1040)], the “ΔTm Run 1” value on LmxCLK1 (setting [1]) is 0.1 °C. Moreover, the “ΔTm Run 2” value at LmxCLK1 (setting [2]) came to 0.1 °C. Also, the “ΔTm Average” value on LmxCLK1 (setting [3]) was found to be 0.1 °C. In addition, on NLuc::LmxCLK1, the “Target occupancy Run 1” value was -2.3%, the “Target occupancy Run 2” value was -19.9% and the “Target occupancy Average” value is on record as -11.1%.
In the case of `COc1ccc(-c2cc3c(C)nc(N)nc3n([C@H]3CC[C@H](OCCO)CC3)c2=O)cn1` [PF-04691502], on LmxCLK1, the ΔTm Average amounted to 0.2 °C, the ΔTm Run 1 amounted to 0.3 °C and the ΔTm Run 2 was determined as 0.1 °C. At NLuc::LmxCLK1, the “Target occupancy Run 1” value is -3.4%, the “Target occupancy Run 2” value is recorded as -25.8% and the “Target occupancy Average” value is given as -14.6%.
Take `O=C(/C=C/c1ccc2ccccc2n1)c1ccncc1` [PFK15]: at LmxCLK1, the ΔTm Average amounted to 0.1 °C, the ΔTm Run 1 was 0.2 °C and the ΔTm Run 2 was determined as 0.1 °C. For the same molecule, on NLuc::LmxCLK1, the “Target occupancy Run 1” value was -10.7%, the “Target occupancy Run 2” value is listed as -9.2% and the “Target occupancy Average” value is recorded as -10.0%.
Regarding `CC(C)(C)n1nc(-c2ccc(Cl)cc2)c2c(N)ncnc21` [PP2], on LmxCLK1, the ΔTm Average was 0 °C, the ΔTm Run 1 worked out at 0.2 °C and the “ΔTm Run 2” value is reported as -0.2. On NLuc::LmxCLK1, the “Target occupancy Run 1” value is on record as -3.1%, the “Target occupancy Run 2” value is 0.5% and the “Target occupancy Average” value is -1.3%.
`Nc1ncnc2c1c(-c1cnc3[nH]ccc3c1)nn2C1CCCC1` [PP121]: the “ΔTm Run 1” value at LmxCLK1 (setting [1]) was 0.9 °C. Also, the “ΔTm Run 2” value at LmxCLK1 (setting [2]) was determined as 0.7 °C. Besides, the “ΔTm Average” value at LmxCLK1 (setting [3]) worked out at 0.8 °C. Further, on NLuc::LmxCLK1, the “Target occupancy Run 1” value was -0.4%, the “Target occupancy Run 2” value is -14.8% and the “Target occupancy Average” value is -7.6%.

The values are drawn from PMC7619385 (ACS infectious diseases, 2025).
